Results taken from patent EP2296651B1, “5-HYDROXYMETHYL-OXAZOLIDIN-2-ONE DERIVATIVES FOR TREATING BACTERIAL INTESTINAL DISEASES” (Actelion Pharmaceuticals Ltd., priority 2008, dated 2009).
Converted amounts (≈) assume the structure as drawn.

Legend:
[1] = test system: Bacteroides fragilis A-348 T 8673; assay: Agar dilution MIC, anaerobic strains; type: cell-based; conditions: A348T8673, 48 h
[2] = test system: Bacteroides fragilis A-294 T 9174; assay: Agar dilution MIC, anaerobic strains; type: cell-based; conditions: A294T9174, 48 h
[3] = test system: Bacteroides fragilis A-260 T 9865; assay: Agar dilution MIC, anaerobic strains; type: cell-based; conditions: A260T9865, 48 h
[4] = test system: S. aureus ATCC 43300 (MRSA); assay: Broth microdilution MIC, aerobic Gram-positive bacteria; conditions: Staphylococcus aureus, 48 h
S. aureus S1 (LZD-R) = assay: as above; conditions: Staphylococcus aureus, 48 h
E. faecalis ATCC 29212 = assay: as above; conditions: Enterococcus faecalis, ATCC29212, 48 h
E. faecalis H 4060 = assay: as above; conditions: Enterococcus faecalis, H4060, 48 h
E. faecalis H 6279 = assay: as above; conditions: Enterococcus faecalis, H6279, 48 h
E. faecalis H 6897 = assay: as above; conditions: Enterococcus faecalis, H6897, 48 h
E. faecalis H 7094 = assay: as above; conditions: Enterococcus faecalis, H7094, 48 h
E. faecalis H 7460 = assay: as above; conditions: Enterococcus faecalis, H7460, 48 h
E. faecium ATCC 19434 = assay: as above; conditions: Enterococcus faecium, ATCC19434, 48 h
E. faecium H 9070 = assay: as above; conditions: Enterococcus faecium, H9070, 48 h
E. faecium H 7937 = assay: as above; conditions: Enterococcus faecium, H7937, 48 h
E. faecium A 962 = assay: as above; conditions: Enterococcus faecium, A962, 48 h
E. faecium A 949 = assay: as above; conditions: Enterococcus faecium, A949, 48 h
E. faecium L1 (LZD-R) = assay: as above; conditions: Enterococcus faecium, 48 h

In the case of `O=C(O)c1cn(C2CC2)c2cc(N3CCC(O)(COc4ccc(N5C[C@H](CO)OC5=O)cc4F)CC3)c(F)cc2c1=O` [Example 1, 1-cyclopropyl-6-fluoro-7-{4-[2-fluoro-4-((R)-5-hydroxymethyl-2-oxo-oxazolidin-3-yl)-phenoxymethyl]-4-hydroxy-piperidin-1-yl}-4-oxo-1,4-dihydro-quinoline-3-carboxylic acid], the MIC [1] is reported as 2 µg/mL (≈ 3.42 µM), the MIC [2] is reported as 4 µg/mL (≈ 6.83 µM) and the MIC [3] is reported as 4 µg/mL (≈ 6.83 µM). It also gave an MIC [4] of 0.25 µg/mL (≈ 0.427 µM), an MIC (S. aureus S1 (LZD-R)) of 1 µg/mL (≈ 1.71 µM) and an MIC (E. faecalis ATCC 29212) of 0.25 µg/mL (≈ 0.427 µM). It also gave an MIC (E. faecalis H 4060) of 0.25 µg/mL (≈ 0.427 µM), an MIC (E. faecalis H 6279) of 0.25 µg/mL (≈ 0.427 µM) and an MIC (E. faecalis H 6897) of 1 µg/mL (≈ 1.71 µM). The MIC (E. faecalis H 7094) was 0.5 µg/mL (≈ 0.854 µM), the MIC (E. faecalis H 7460) was 1 µg/mL (≈ 1.71 µM) and the MIC (E. faecium ATCC 19434) was 0.25 µg/mL (≈ 0.427 µM). For the same compound, the MIC (E. faecium H 9070) was 1 µg/mL (≈ 1.71 µM), the MIC (E. faecium H 7937) was 0.25 µg/mL (≈ 0.427 µM) and the MIC (E. faecium A 962) was 0.5 µg/mL (≈ 0.854 µM). It also gave an MIC (E. faecium A 949) of 1 µg/mL (≈ 1.71 µM) and an MIC (E. faecium L1 (LZD-R)) of 2 µg/mL (≈ 3.42 µM).
